Data as given in US8106055B2, “Substituted amide compounds” (Gruenenthal GmbH, priority 2007, dated 2012).

Biological target: T1, human bradykinin 1 receptor (B1R) (Homo sapiens, UniProt P46663)
T1 construct: expressed in transfected cells; host or cells: CHO K1 cells
T1 sequence (P46663 1-353): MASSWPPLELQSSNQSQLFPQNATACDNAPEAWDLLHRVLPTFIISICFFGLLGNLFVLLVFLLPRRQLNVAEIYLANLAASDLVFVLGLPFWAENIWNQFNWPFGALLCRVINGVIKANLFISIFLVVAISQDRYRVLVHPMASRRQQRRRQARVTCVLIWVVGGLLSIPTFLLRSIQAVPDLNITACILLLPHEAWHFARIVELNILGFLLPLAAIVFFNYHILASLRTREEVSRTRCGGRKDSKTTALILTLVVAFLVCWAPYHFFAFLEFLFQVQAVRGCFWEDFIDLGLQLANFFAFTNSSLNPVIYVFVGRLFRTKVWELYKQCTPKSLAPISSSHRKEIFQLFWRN
Test: Functional investigation on the human bradykinin 1 receptor (B1R), Ca2+ FLIPR assay in CHO K1 hB1R cells
Type: cell-based
Conditions: B1R antagonism human; test substance 10 μM; Ca2+ FLIPR, CHO K1 hB1R cells
How it was run: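 Fluo-4 Ca2+ readout, peak fluorescence. Stable CHO K1 transfectants; compound pre-incubated 10-20 min, then EC80 agonist—Lys-Des-Arg9-BK for hB1R, Des-Arg9-BK for rB1R. % inhibition vs maximal inhibition; IC50 from multiple concentrations, duplicate/triplicate, ≥2 independent runs.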

Row | SMILES | B1R Ant. h [10 μM] % Inhibition [%]
1 | CN(C)C(c1cccc(F)c1)C1CCC(NC(=O)COCCN2CCN(S(=O)(=O)c3ccccc3)CC2)CC1 (centres unmarked) [Example 364] | 0
2 | COc1cc(C)c(S(=O)(=O)N2CCC(OCC(=O)NCCC3CCC(C(c4ccc(Cl)cc4)N(C)C)CC3)C2)c(C)c1C (centres unmarked) [Example 412] | 40
3 | CN(C)C(c1ccc(F)cc1)C1CCC(CNC(=O)COCCN(C)S(=O)(=O)c2ccc(Cl)cc2)CC1 (centres unmarked) [Example 399] | 20
4 | COc1cc(C)c(S(=O)(=O)N2CCN(CCOCC(=O)NCCC3CCC(C(c4ccc(F)cc4)N(C)C)CC3)CC2)c(C)c1C (centres unmarked) [Example 387] | 75
5 | CN(C)C(c1ccc(Cl)cc1)C1CCC(CCNC(=O)COCC2CCCN(S(=O)(=O)c3ccccc3)C2)CC1 (centres unmarked) [Example 425] | 12
6 | CN(C)C(c1ccc(F)cc1)C1CCC(CNC(=O)COC2CCN(S(=O)(=O)c3ccc(Cl)cc3Cl)C2)CC1 (centres unmarked) [Example 391] | 71
7 | CN(C)C(c1cccc(F)c1)C1CCC(CCNC(=O)COC2CCN(S(=O)(=O)c3ccccc3)C2)CC1 (centres unmarked) [Example 376] | −17
8 | CN(C)C(c1ccc(F)cc1)C1CCC(CNC(=O)COC2CCN(S(=O)(=O)c3cccc(C(F)(F)F)c3)C2)CC1 (centres unmarked) [Example 402] | 0
9 | COc1ccc(S(=O)(=O)N2Cc3ccccc3CC2COCC(=O)NCCC2CCC(C(c3ccc(F)cc3)N(C)C)CC2)cc1 (centres unmarked) [Example 389] | 36
10 | COc1ccc(S(=O)(=O)N2CCCCC2CCOCC(=O)NCCC2CCC(C(c3ccc(F)cc3)N(C)C)CC2)cc1 (centres unmarked) [Example 398] | 80
11 | COc1ccc(S(=O)(=O)N(C)CCOCC(=O)NCC2CCC(C(c3ccc(Cl)cc3)N(C)C)CC2)cc1OC (centres unmarked) [Example 379] | −5
12 | COc1ccc(S(=O)(=O)N2CCC(OCC(=O)NCCC3CCC(C(c4ccc(F)cc4)N(C)C)CC3)C2)cc1OC (centres unmarked) [Example 430] | −7
13 | CN(C)C(c1ccc(F)cc1)C1CCC(CCNC(=O)COCCN(C)S(=O)(=O)c2ccc(OC(F)(F)F)cc2)CC1 (centres unmarked) [Example 446] | 19
14 | CN(C)C(c1ccc(F)cc1)C1CCC(NC(=O)COCCN(C)S(=O)(=O)c2cccc(C(F)(F)F)c2)CC1 (centres unmarked) [Example 438] | 9
15 | COc1cc(C)c(S(=O)(=O)N2CCC(OCC(=O)NCC3CCC(C(c4ccc(Cl)cc4)N(C)C)CC3)C2)c(C)c1 (centres unmarked) [Example 403] | 106
16 | COc1cc(C)c(S(=O)(=O)N(CCOCC(=O)NC2CCC(C(c3cccc(F)c3)N(C)C)CC2)Cc2ccccc2)c(C)c1C (centres unmarked) [Example 419] | 37
17 | CN(C)C(c1cccc(F)c1)C1CCC(CCNC(=O)COC2CCN(S(=O)(=O)c3ccccc3)CC2)CC1 (centres unmarked) [Example 444] | −20
18 | CN(C)C(c1ccc(F)cc1)C1CCC(NC(=O)COCCN(C)S(=O)(=O)c2ccc(Cl)cc2)CC1 (centres unmarked) [Example 406] | 5
19 | CCN(CCOCC(=O)NC1CCC(C(c2ccc(F)cc2)N(C)C)CC1)S(=O)(=O)c1c(C)cc(OC)c(C)c1C (centres unmarked) [Example 396] | 70

Row | SMILES | B1R Ant. h [10 μM] % Inhibition [%]
20 | COc1cc(C)c(S(=O)(=O)N(C)CCOCC(=O)NCCC2CCC(C(c3ccc(Cl)cc3)N(C)C)CC2)c(C)c1 (centres unmarked) [Example 378] | 104
21 | CN(C)C(c1ccc(F)cc1)C1CCC(CCNC(=O)COCCN(C)S(=O)(=O)c2ccc(Cl)cc2)CC1 (centres unmarked) [Example 377] | 28
22 | CN(C)C(c1ccc(Cl)cc1)C1CCC(CNC(=O)COC2CCN(S(=O)(=O)c3ccc(Cl)cc3)C2)CC1 (centres unmarked) [Example 384] | 31
23 | COc1cc(C)c(S(=O)(=O)N2CCN(CCOCC(=O)NCC3CCC(C(c4ccc(Cl)cc4)N(C)C)CC3)CC2)c(C)c1C (centres unmarked) [Example 429] | 75
24 | Cc1ccc(S(=O)(=O)N2CCC(OCC(=O)NCC3CCC(C(c4ccc(F)cc4)N(C)C)CC3)C2)cc1 (centres unmarked) [Example 447] | 24
25 | COc1cc(C)c(S(=O)(=O)N(CCOCC(=O)NCCC2CCC(C(c3cccc(F)c3)N(C)C)CC2)Cc2ccccc2)c(C)c1C (centres unmarked) [Example 436] | 8
26 | CN(C)C(c1ccc(F)cc1)C1CCC(NC(=O)COC2CCN(S(=O)(=O)c3ccc(Cl)cc3)C2)CC1 (centres unmarked) [Example 370] | −14
27 | COc1cc(C)c(S(=O)(=O)N2CCCC(OCC(=O)NC3CCC(C(c4ccc(F)cc4)N(C)C)CC3)C2)c(C)c1C (centres unmarked) [Example 435] | 15
28 | COc1cc(C)c(S(=O)(=O)N(CCOCC(=O)NC2CCC(C(c3cccc(F)c3)N(C)C)CC2)Cc2ccccc2)c(C)c1 (centres unmarked) [Example 372] | 65
29 | COc1ccc(S(=O)(=O)N2Cc3ccccc3CC2COCC(=O)NCC2CCC(C(CCc3ccccc3)N(C)C)CC2)cc1 (centres unmarked) [Example 373] | 98
30 | CN(C)C(c1ccc(Cl)cc1)C1CCC(CCNC(=O)COC2CCN(S(=O)(=O)c3ccc(F)cc3)C2)CC1 (centres unmarked) [Example 440] | 8
31 | CN(C)C(c1ccc(Cl)cc1)C1CCC(CCNC(=O)COC2CCN(S(=O)(=O)c3cccc(C(F)(F)F)c3)C2)CC1 (centres unmarked) [Example 431] | 25
32 | COc1cc(C)c(S(=O)(=O)N2CCC(OCC(=O)NCC3CCC(C(c4ccc(F)cc4)N(C)C)CC3)C2)c(C)c1C (centres unmarked) [Example 427] | 76
33 | Cc1ccc(S(=O)(=O)N(C)CCOCC(=O)NC2CCC(C(c3ccc(F)cc3)N(C)C)CC2)cc1 (centres unmarked) [Example 448] | 0
34 | COc1cc(C)c(S(=O)(=O)N2CCC(CCOCC(=O)NCCC3CCC(C(c4cccc(F)c4)N(C)C)CC3)CC2)c(C)c1C (centres unmarked) [Example 397] | 2
35 | COc1cc(C)c(S(=O)(=O)N2CCC(OCC(=O)NC3CCC(C(c4ccc(F)cc4)N(C)C)CC3)C2)c(C)c1 (centres unmarked) [Example 441] | 94
36 | COc1cc(C)c(S(=O)(=O)N2CCC(OCC(=O)NC3CCC(C(c4ccc(F)cc4)N(C)C)CC3)C2)c(C)c1C (centres unmarked) [Example 365] | 48
37 | COc1ccc(S(=O)(=O)N2Cc3ccccc3CC2COCC(=O)NCCC2CCC(C(c3ccc(Cl)cc3)N(C)C)CC2)cc1 (centres unmarked) [Example 374] | 18
38 | Cc1cc(C)c(S(=O)(=O)N2CCC(OCC(=O)NCC3CCC(C(c4ccc(Cl)cc4)N(C)C)CC3)C2)c(C)c1 (centres unmarked) [Example 393] | 97

Row | SMILES | B1R Ant. h [10 μM] % Inhibition [%]
39 | CN(C)C(CCc1ccccc1)C1CCC(CNC(=O)COCCN(C)S(=O)(=O)c2ccc(Cl)cc2)CC1 (centres unmarked) [Example 445] | 66
40 | COc1ccc(S(=O)(=O)N2CCCCC2COCC(=O)NCC2CCC(C(c3ccc(Cl)cc3)N(C)C)CC2)cc1OC (centres unmarked) [Example 367] | −9
41 | CCN(CCOCC(=O)NCCC1CCC(C(c2ccc(F)cc2)N(C)C)CC1)S(=O)(=O)c1c(C)cc(OC)c(C)c1C (centres unmarked) [Example 413] | 96
42 | COc1ccc(S(=O)(=O)N2CCCC2COCC(=O)NCCC2CCC(C(c3ccc(F)cc3)N(C)C)CC2)cc1 (centres unmarked) [Example 409] | 45
43 | Cc1cc(C)c(S(=O)(=O)N(C)CCOCC(=O)NCCC2CCC(C(c3ccc(Cl)cc3)N(C)C)CC2)c(C)c1 (centres unmarked) [Example 416] | 104
44 | COc1cc(C)c(S(=O)(=O)N2CCN(CCOCC(=O)NCC3CCC(C(c4ccc(F)cc4)N(C)C)CC3)CC2)c(C)c1C (centres unmarked) [Example 366] | 55
45 | CN(C)C(c1ccc(F)cc1)C1CCC(CCNC(=O)COCCN(C)S(=O)(=O)c2cccc(C(F)(F)F)c2)CC1 (centres unmarked) [Example 368] | 39
46 | COc1ccc(S(=O)(=O)N2CCCCC2CCOCC(=O)NCCC2CCC(C(c3ccc(Cl)cc3)N(C)C)CC2)cc1 (centres unmarked) [Example 383] | 77
47 | CN(C)C(c1ccc(Cl)cc1)C1CCC(CCNC(=O)COC2CCCN(S(=O)(=O)c3ccccc3)C2)CC1 (centres unmarked) [Example 395] | 27
48 | COc1ccc(S(=O)(=O)N2CCCCC2COCC(=O)NCC2CCC(C(c3ccc(F)cc3)N(C)C)CC2)c(OC)c1 (centres unmarked) [Example 405] | 5
49 | CN(C)C(c1cccc(F)c1)C1CCC(CCNC(=O)COC2CCN(S(=O)(=O)c3ccc(F)cc3)C2)CC1 (centres unmarked) [Example 407] | 4
50 | CN(C)C(c1ccc(F)cc1)C1CCC(CNC(=O)COCC2CCCN(S(=O)(=O)c3ccccc3)C2)CC1 (centres unmarked) [Example 424] | −12
51 | CN(C)C(c1ccc(Cl)cc1)C1CCC(CNC(=O)COCCN(C)S(=O)(=O)c2ccc(OC(F)(F)F)cc2)CC1 (centres unmarked) [Example 411] | 41
52 | Cc1cc(C)c(S(=O)(=O)N2CCC(OCC(=O)NCC3CCC(C(c4ccc(F)cc4)N(C)C)CC3)C2)c(C)c1 (centres unmarked) [Example 432] | 61
53 | CN(C)C(c1ccc(F)cc1)C1CCC(CNC(=O)COCCN(C)S(=O)(=O)c2cccc(C(F)(F)F)c2)CC1 (centres unmarked) [Example 390] | 55
54 | COc1cc(C)c(S(=O)(=O)N(CCOCC(=O)NCC2CCC(C(c3cccc(F)c3)N(C)C)CC2)Cc2ccccc2)c(C)c1 (centres unmarked) [Example 388] | 74
55 | CN(C)C(c1ccc(Cl)cc1)C1CCC(CCNC(=O)COCCN(Cc2ccccc2)S(=O)(=O)c2ccccc2)CC1 (centres unmarked) [Example 426] | −7
56 | CCN(CCOCC(=O)NCCC1CCC(C(c2ccc(Cl)cc2)N(C)C)CC1)S(=O)(=O)c1c(C)cc(OC)c(C)c1C (centres unmarked) [Example 434] | 47
